Earlier results in patent US7732483B2, “DNA-PK inhibitors” (Kudos Pharmaceuticals Limited, priority 2004, dated 2010).

System: cells
Conditions: Rosenzweig et al. 1999

O=c1cc(N2CCOCC2)oc2c(-c3ccccc3)cccc12 [LY294002]
sensitisation of cells to the effects of IR: weakly sensitise cells to the effects of IR
